Like-named read-outs stand apart in the source and are kept apart here.
Experiments:
M. incognita J2 larvae = assay: Meloidogyne incognita in vitro larval mobility assay; assay type: in vivo; settings: 45 μM, 4 days; for Replicate 1 z-score / Replicate 2 z-score: z-score vs untreated DMSO wells; for pest or weed control at 45 µM: Meloidogyne incognita, 96 h
Experimental: M. incognita (Kofoid & White) Chitwood Race 1 (originally isolated in Maryland) was used for all experiments, and was maintained on pepper (Capsicum annuum L.) cv. PA-136 in a greenhouse as previously described^44. Infective J2 juveniles were collected as described in ref. 45. The microwell dose-response experiments were carried out similarly to previously described protocols^44,46. In brief, 50 μL of deionized water was added to the wells of 96-well polystyrene plates and 0.5 μL of test compound (or DMSO alone) was added to each well. Approximately 35 J2s were then added to each well in 49.5 μL of deionized water. The chemicals were tested at 45 μM, and the final concentration of DMSO in each well was 0.5% (v/v). DMSO alone was added to 3 separate wells. The plates were covered with plastic adhesive strips, and the lids of the plates were sealed with parafilm. The plates were incubated at 25° C. without shaking for 4 days. The percent of worms that were immobile (% immobile) was quantified by counting the number of immobile worms after 4 days of incubation, dividing the number of immobile worms by the total number of worms in the well, and then multiplying by 100. Two replicates were performed for each treatment. The z-score for each treatment was calculated using the mean and standard deviation of the untreated DMSO control wells. The average % immobile value was calculated across the two replicates. A test compound was considered most promising if the z-score was greater than 1.645 in both replicates.

M. hapla eggs = assay: Meloidogyne hapla in vitro egg hatch assay; assay type: in vivo; settings: 45 μM; for Number of Hatched Eggs: 8 days at room temperature, about 90 eggs per well, tested once; for Number of Hatched Eggs z-score: 8 days, z-score vs 8 untreated DMSO wells
Experimental: The M. hapla were originally obtained from a soil sample of muck soil from Ste-Clotilde, Quebec, Canada. Using tweezers, egg masses were carefully removed from root material from infested carrot roots. Eggs were liberated from the egg masses using a mild sodium hypochlorite bleaching protocol, whereby egg masses were bleached with a 10% commercial bleach (sodium hypochlorite) solution for 4 minutes with vigorous shaking, and then washed 5 times with deionized water. 50 μL of deionized water was added to each well of two 96-well polystyrene culture plates, and 0.5 μL of chemical (or DMSO alone) was added to each well. Approximately 90 eggs were added to each well in 49.5 ul of deionized water. The plates were sealed with parafilm and incubated for 8 days at room temperature without shaking in a Tupperware box filled with wet paper towels. After the 8-day incubation, the number of hatched eggs was counted for each treatment and for the untreated controls. Each chemical treatment was tested only once. 8 separate untreated DMSO controls were included in the experiment. The z-score for each treatment was calculated using the mean and standard deviation of the untreated DMSO control wells.

C. elegans = C. elegans dose-response (viability, minimum lethal concentration); assay type: in vivo, Caenorhabditis elegans; settings: Caenorhabditis elegans, 72 h, L1 worms, 3 days at 20° C.
Experimental: Forty microliters of an HB101 E. coli bacterial suspension in liquid NGM (nematode growth media—see ref. 42 for the recipe) was added to each well of a 96-well flat-bottom culture plate, after which approximately 25 synchronized L1 worms, in 10 μl of M9 buffer (see ref. 43 for the recipe), were added to each well. The synchronized L1 worms were obtained from an embryo preparation performed the previous day (see ref. 43 for the protocol). For the L1 assays, 0.5 μl of test compound solution (or DMSO alone) was immediately added to the wells using a multichannel pipette; the final DMSO concentration is 1% (v/v). The worms were incubated for 3 days at 20° C. and the number of viable animals was counted.
At least three biological replicates were performed for each dose-response assay. For each biological replicate, two technical replicates were performed and the numbers of viable animals for each technical replicate were combined (i.e. ˜ 50 worms assayed per concentration). The number of viable worms at each concentration was divided by the corresponding DMSO control value to give the “relative viability” for each concentration. The “relative viability” values were then averaged across the biological replicates. Minimum lethal concentration was defined as the lowest concentration at which at least 20% of worms die.

M. incognita = assay: Meloidogyne incognita infectivity assay (soil, tomato roots); assay type: in vivo; settings: Meloidogyne incognita, 1344 h, 45 μM in soil, 8 weeks, eggs per mg root relative to DMSO control, read-out: % effectiveness at inhibiting reproduction of M. incognita
Text: An M. incognita population originally collected from grape (Vitis vinifera) in Parlier, California, was used for all experiments, and they were maintained on tomato plants (Solanum lycopersicum ‘Rutgers’) as previously described^47. Infective J2 juveniles were collected as described in ref. 47.

tomato plants = assay: Root mass of tomato plants in the soil infectivity assay; settings: 45 μM in soil, 8 weeks
Experimental: For the infectivity assays, 90 grams of soil (1:1 sand:loam mix) was added to each cell of several 6-cell plastic garden packs. The soil was drenched with 18 mL of deionized water containing dissolved test compound or DMSO alone. 2,500 infective J2 juveniles were then added to the soil in 2 mL of deionized water, for a total water volume of 20 mL. […] The DMSO concentration varied from 0.1% to 0.8% (v/v) depending on the stock concentration of the test compound. The highest DMSO concentration was used as the DMSO control. The J2s were incubated in the soil and chemical for 24 hours, after which two- to three-week old tomato seedlings were transplanted into the soil (one plant per cell). Two replicates were performed for each chemical treatment, and four replicates were done for the DMSO controls. The whole experiment was replicated twice, in two different batches on two different days, for a total of four replicates for each test compound treatment, and eight replicates for the DMSO controls. Inoculated plants were grown for 8 weeks in a greenhouse, as described^47, under long-day conditions (16-h photoperiod) with 26/18° C. day/night temperatures. After 8 weeks, the plants were destructively harvested. The tops were removed and discarded, and roots were gently washed with water to remove adhering soil. Eggs were extracted by placing rinsed roots in 0.6% sodium hypochlorite and agitating at 300 rpm for 3 min. Roots were then rinsed over nested 250—and 25.4-μm sieves, with eggs collected from the latter and suspended in water. Roots were dried in a 65° C. oven for at least 24 hours, after which dry roots were weighed. The number of eggs from each plant root was counted on a dissection microscope using a haemocytometer, and the number of eggs per milligram of root was calculated by dividing the total egg number by the mass of the dried root material. An average was taken across the replicates performed on the same day, and then normalized to the DMSO control average. […] An average percent effectiveness value was then calculated across the two different batches carried out on different days.

[1] = average of the two replicates, read-out: Average % Immobile
[2] = replicate 1, read-out: Replicate 1 % Immobile
[3] = replicate 2, read-out: Replicate 2 % Immobile
[4] = lowest concentration at which at least 20% of worms die, read-out: Minimum Lethal Concentration
[5] = same values in ppm, read-out: Minimum Lethal Concentration (ppm)

SMILES | Replicate 1 z-score (M. incognita J2 larvae; replicate 1) | Replicate 2 z-score (M. incognita J2 larvae; replicate 2) | pest or weed control at 45 µM (M. incognita J2 larvae; [1]) [%] | pest or weed control at 45 µM (M. incognita J2 larvae; [2]) [%] | pest or weed control at 45 µM (M. incognita J2 larvae; [3]) [%] | Number of Hatched Eggs (M. hapla eggs) | Number of Hatched Eggs z-score (M. hapla eggs) | minimal effective concentration (C. elegans; [4]) [µM] | minimal effective concentration (C. elegans; [5]) [µg/mL] | pest or weed control at 45 µM (M. incognita) [%] | Normalized root mass (relative to DMSO control) (tomato plants)
c1ccc(-c2nc3sccn3n2)cc1 [I-116] | [4.40] | [2.43] | 33.7 | 44.2 | 23.2 | 2 | [3.97] |  |  |  | 
Brc1ccccc1-c1cn2ccsc2n1 [I-38] |  |  |  |  |  |  |  | 100 | 27.9 | 0 | 1.21
COCc1nn2cc(-c3ccc(Cl)cc3)nc2s1 [I-144] | [4.17] | [6.85] | 45.4 | 43.1 | 47.6 | 4 | [3.31] |  |  |  | 
Ic1ccccc1-c1cn2ccsc2n1 [I-43] |  |  |  |  |  | 4 | [3.31] | 50 | 16.3 |  | 
Cc1c(-c2ccccc2F)nc2sccn12 [I-19] |  |  |  |  |  |  |  | > 100 | > 23.2 | 16.6 | 1.27
Clc1ccc(-c2cn3ccsc3n2)c(Cl)c1 [I-32] |  |  |  |  |  |  |  | 6.25 | 1.7 | 4.4 | 1.31
Clc1ccc(-c2cn3c(n2)SCC3)cc1 [I-49] | [15.80] | [16.33] |  | 100 | 100 | 2 | [3.97] |  |  |  | 
O=Cc1c(-c2ccccc2)nc2sccn12 [I-122] | [14.96] | [12.31] | ≥ 75 | 95.9 | 77.8 | 1 | [4.30] |  |  |  | 
CCc1ccc(-c2cn3c(C)csc3n2)cc1 [I-9] |  |  |  |  |  | 2 | [3.97] | 100 | 24.2 |  | 
Cc1c(-c2ccccc2Br)nc2sccn12 [I-39] |  |  |  |  |  |  |  | > 100 | > 29.3 |  | 
Cc1csc2nc(-c3cccc(F)c3)cn12 [I-16] |  |  |  |  |  |  |  | > 100 | > 23.2 | 0 | 1.15
Cc1csc2nc(-c3ccccc3F)cn12 [I-20] |  |  |  |  |  |  |  | > 100 | > 23.2 |  | 
Cc1c(-c2ccccc2Cl)nc2sccn12 [I-28] |  |  |  |  |  |  |  | > 100 | > 24.9 | 17.4 | 1.37
Clc1cccc(-c2cn3ccsc3n2)c1 [I-23] | [14.66] | [13.61] | ≥ 75 | 94.4 | 85 | 1 | [4.30] | 100 | 23.5 |  | 
Fc1ccccc1-c1cn2ccsc2n1 [I-18] |  |  |  |  |  |  |  |  |  | 0 | 1.13
Cc1ccc(-c2nc3sccn3c2C)cc1 [I-3] | [6.94] | [2.76] | 40.8 | 56.7 | 25 |  |  | > 100 | > 22.8 |  | 

— patent US20240109914A1, “IMIDAZOTHIAZOLE COMPOUNDS AND ANALOGS THEREOF AND METHODS FOR TREATING NEMATODE INFECTIONS IN PLANTS” (The Governing Council of The University of Toronto, priority 2021, published 2024)
